In the NIST ThermoML archive (doi:10.1016/j.jct.2013.09.035):
± gives the expanded uncertainty stated by the source.

Conditions: Liquid, Vibrating tube method

FCC(F)(F)F [1,1,1,2-tetrafluoroethane]
Conditions | mass density [kg/m3]
283.25 K, 60000 kPa | 1416.44 ± 1.6
283.26 K, 1000 kPa | 1265.88 ± 0.5
283.26 K, 5000 kPa | 1282.35 ± 0.65
283.26 K, 10000 kPa | 1300.86 ± 0.57
283.26 K, 20000 kPa | 1331.64 ± 0.6
283.26 K, 40000 kPa | 1379.61 ± 1.1
283.26 K, 80000 kPa | 1446.35 ± 1.6
302.84 K, 20000 kPa | 1276.99 ± 0.73
302.84 K, 40000 kPa | 1333.11 ± 1.1
302.84 K, 80000 kPa | 1408.64 ± 1.5
302.85 K, 1000 kPa | 1190.34 ± 0.51
302.85 K, 5000 kPa | 1214.03 ± 0.51
302.85 K, 10000 kPa | 1238.45 ± 0.55
302.85 K, 60000 kPa | 1374.79 ± 1.1
322.62 K, 5000 kPa | 1140.59 ± 0.63
322.63 K, 10000 kPa | 1174.6 ± 0.56
322.63 K, 20000 kPa | 1224.02 ± 0.64
322.64 K, 40000 kPa | 1290.68 ± 0.88
322.64 K, 60000 kPa | 1338.04 ± 0.98
322.64 K, 80000 kPa | 1375.39 ± 1.4
342.56 K, 5000 kPa | 1047.23 ± 0.84
342.56 K, 10000 kPa | 1098.48 ± 0.71
342.56 K, 20000 kPa | 1163.35 ± 0.49
342.56 K, 40000 kPa | 1242.84 ± 0.65
342.57 K, 60000 kPa | 1296.48 ± 0.86
342.57 K, 80000 kPa | 1337.6 ± 1.3
362.57 K, 5000 kPa | 924.58 ± 1.2
362.58 K, 10000 kPa | 1014.86 ± 0.8
362.58 K, 20000 kPa | 1102.88 ± 0.54
362.58 K, 40000 kPa | 1197.86 ± 0.69
362.58 K, 60000 kPa | 1258.31 ± 0.81
362.58 K, 80000 kPa | 1303.78 ± 1.2
